Test results from the supplement of paper PMC10307832.

Tests used:
Experiment in all cases: relative viability (nuclei count vs DMSO), 5 days (fraction); higher = more cells survive
Zosuquidar + Trametinib = compound: O[C@@H](COc1cccc2ncccc12)CN1CCN([C@@H]2c3ccccc3[C@@H]3[C@H](c4ccccc42)C3(F)F)CC1 [Zosuquidar] + CC(=O)Nc1cccc(-n2c(=O)n(C3CC3)c(=O)c3c(Nc4ccc(I)cc4F)n(C)c(=O)c(C)c32)c1 [Trametinib] (partner 0.02 µM)
Method in brief: (§1)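 Lung cancer cell lines in 1536-well plates got either a single drug or a fixed anchor-drug dose together with five library-drug doses (not always all listed) in √10 steps, by pin tool, on the day after seeding. Nuclei were counted after 5 days, and relative viability is the treated-to-vehicle ratio of nuclei counts. Values are medians of duplicate plates.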

Zosuquidar + Palbociclib = compound: O[C@@H](COc1cccc2ncccc12)CN1CCN([C@@H]2c3ccccc3[C@@H]3[C@H](c4ccccc42)C3(F)F)CC1 [Zosuquidar] + CC(=O)c1c(C)c2cnc(Nc3ccc(N4CCNCC4)cn3)nc2n(C2CCCC2)c1=O [Palbociclib] (partner 0.5 µM)
Method in brief: as §1

Zosuquidar + AZD7762 = compound: O[C@@H](COc1cccc2ncccc12)CN1CCN([C@@H]2c3ccccc3[C@@H]3[C@H](c4ccccc42)C3(F)F)CC1 [Zosuquidar] + NC(=O)Nc1cc(-c2cccc(F)c2)sc1C(=O)N[C@H]1CCCNC1 [AZD7762] (partner 0.2 µM)
Method in brief: as §1

Kobe2602 + Pictilisib = compound: C1=CC(=CC=C1NC(=S)NNC2=C(C=C(C=C2[N+](=O)[O-])C(F)(F)F)[N+](=O)[O-])F [Kobe2602] + CS(=O)(=O)N1CCN(Cc2cc3nc(-c4cccc5[nH]ncc45)nc(N4CCOCC4)c3s2)CC1 [Pictilisib] (partner 1 µM)
Method in brief: as §1

| Cell Line | relative viability (Zosuquidar + Trametinib; first compound 0.01 µM) | relative viability (Zosuquidar + Trametinib; first compound 0.03162 µM) | relative viability (Zosuquidar + Trametinib; first compound 0.1 µM) | relative viability (Zosuquidar + Trametinib; first compound 0.3162 µM) | relative viability (Zosuquidar + Trametinib; first compound 1 µM) | relative viability (Zosuquidar + Palbociclib; first compound 0.01 µM) | relative viability (Zosuquidar + Palbociclib; first compound 0.03162 µM) | relative viability (Zosuquidar + Palbociclib; first compound 0.1 µM) | relative viability (Zosuquidar + Palbociclib; first compound 0.3162 µM) | relative viability (Zosuquidar + Palbociclib; first compound 1 µM) | relative viability (Zosuquidar + AZD7762; first compound 0.01 µM) | relative viability (Zosuquidar + AZD7762; first compound 0.03162 µM) | relative viability (Zosuquidar + AZD7762; first compound 0.1 µM) | relative viability (Zosuquidar + AZD7762; first compound 0.3162 µM) | relative viability (Zosuquidar + AZD7762; first compound 1 µM) | relative viability (Kobe2602 + Pictilisib; first compound 0.2 µM) | relative viability (Kobe2602 + Pictilisib; first compound 0.6325 µM) | relative viability (Kobe2602 + Pictilisib; first compound 2 µM) | relative viability (Kobe2602 + Pictilisib; first compound 6.325 µM) | relative viability (Kobe2602 + Pictilisib; first compound 20 µM) |
| --- | --- | --- | --- | --- | --- | --- | --- | --- | --- | --- | --- | --- | --- | --- | --- | --- | --- | --- | --- | --- |
| NCI-H1648 | 0.479 | 0.454 | 0.465 | 0.469 | 0.408 | 0.297 | 0.319 | 0.289 | 0.305 | 0.242 | 0.633 | 1.13 | 0.671 | 0.538 | 0.594 | – | – | – | – | – |
| NCI-H1650 | 0.488 | 0.577 | 0.702 | 0.661 | 0.601 | 0.373 | 0.31 | 0.365 | 0.351 | 0.337 | – | – | – | – | – | 0.554 | 0.806 | 0.635 | 0.658 | 0.597 |
| NCI-H1703 | – | – | – | – | – | – | – | – | – | – | 0.0988 | 0.125 | – | 0.136 | 0.125 | 0.26 | 0.245 | 0.225 | 0.263 | 0.229 |
| NCI-H2009 | 0.273 | 0.208 | 0.239 | 0.285 | 0.263 | 0.204 | 0.183 | 0.154 | 0.251 | 0.211 | – | – | – | – | – | 0.843 | 0.877 | 0.874 | 0.876 | 0.897 |
| NCI-H2023 | 0.595 | 0.669 | 0.574 | 0.702 | 0.596 | 0.364 | 0.36 | 0.418 | 0.37 | 0.313 | – | – | – | – | – | 0.259 | 0.269 | 0.223 | 0.215 | 0.228 |
| NCI-H2228 | 0.438 | 0.441 | 0.423 | 0.57 | 0.505 | 0.804 | 0.821 | 0.76 | 0.865 | 0.613 | – | – | – | – | – | 0.552 | 0.372 | 0.334 | 0.334 | 0.33 |
| NCI-H2342 | 0.805 | 0.975 | 0.757 | 0.873 | 0.957 | 0.531 | 0.528 | 0.519 | 0.502 | 0.553 | 0.63 | 0.527 | 0.44 | 0.552 | 0.47 | – | – | – | – | – |
| SK-LU-1 | 0.506 | 0.578 | 0.488 | 0.489 | 0.519 | 0.396 | 0.381 | 0.408 | 0.432 | 0.396 | – | – | – | – | – | 0.613 | 0.727 | 0.624 | 0.578 | 0.513 |
| SK-MES-1 | 0.616 | 0.494 | 0.535 | 0.563 | 0.549 | 0.332 | 0.347 | 0.374 | 0.329 | 0.319 | – | – | – | – | – | 0.348 | 0.362 | 0.346 | 0.345 | 0.362 |
| SW 900 | 0.666 | 0.715 | – | 1.05 | 0.988 | 0.568 | 0.558 | – | 0.665 | 0.596 | 0.597 | 0.782 | – | 0.668 | 0.636 | – | – | – | – | – |
| SW 1573 | 0.613 | 0.605 | 0.549 | 0.628 | 0.544 | 0.44 | 0.4 | 0.541 | 0.405 | 0.372 | – | – | – | – | – | 0.491 | 0.457 | 0.365 | 0.556 | 0.486 |
